T/C data for 6 molecules are collected here from PubChem BioAssay AID180 (DTP/NCI, 2004).

Usually T/C stands for the ratio of treated to control.

Values joined by “and” are separate entries in the source; they are usually repeats but may differ in a detail not shown here. Equal entries are not always repeated.

The experiment deals with BDF1 mice, Adenocarcinoma 755 s.c., tumor weight T/C. In words: NCI In Vivo Anticancer Drug Screen. Data for tumor model Adenocarcinoma 755 (subcutaneous) in B6D2F1 (BDF1) mice. The note with it: endpoint: mean tumor weight, schedule: Q01DX011 (ip), higher = larger tumour. The method, boiled down: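 Readout: T/C, i.e. treated-group measurement over vehicle-control measurement. Endpoint is survival or tumor size in tumor-bearing mice given compound.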

For the molecule `Cn1c(N)nc2c(ncn2C2OC(CO)C(O)C2O)c1=O` (configuration not stated), the T/C by setting is: (dose: 30.0 mg/kg/injection, vehicle: saline) 101 % of control; (dose: 60.0 mg/kg/injection, vehicle: saline) 94 % of control; (dose: 120.0 mg/kg/injection, vehicle: saline) 116 % of control.
Turning to `CC(=O)OCC1OC(n2cnc3c(Cl)nc(Cl)nc32)C(OC(C)=O)C1OC(C)=O` (configuration not stated), the T/C reads like this: (dose: 30.0 mg/kg/injection, vehicle: carboxymethylcellulose (CMC)) 85 % of control; (dose: 60.0 mg/kg/injection, vehicle: carboxymethylcellulose (CMC)) 92 % of control; (dose: 120.0 mg/kg/injection, vehicle: carboxymethylcellulose (CMC)) 61 % of control; (dose: 240.0 mg/kg/injection, vehicle: carboxymethylcellulose (CMC)) 61 % of control.
Turning to `c1ccc2[nH]cnc2c1`, the T/C reads like this: (dose: 38.5 mg/kg/injection, vehicle: carboxymethylcellulose (CMC)) 74 % of control; (dose: 40.0 mg/kg/injection, vehicle: carboxymethylcellulose (CMC)) 93 % of control; (dose: 43.5 mg/kg/injection, vehicle: carboxymethylcellulose (CMC)) 116 % of control; (dose: 62.5 mg/kg/injection, vehicle: methylcellulose (MC)) 60 % of control; (dose: 77.0 mg/kg/injection, vehicle: carboxymethylcellulose (CMC)) 62 % of control; (dose: 80.0 mg/kg/injection, vehicle: carboxymethylcellulose (CMC)) 72 % of control. The T/C is, setting by setting: (dose: 87.0 mg/kg/injection, vehicle: carboxymethylcellulose (CMC)) 110 % of control; (dose: 123.2 mg/kg/injection, vehicle: carboxymethylcellulose (CMC)) 41 % of control and 57 % of control; (dose: 125.0 mg/kg/injection, vehicle: methylcellulose (MC)) 88 % of control; (dose: 160.0 mg/kg/injection, vehicle: carboxymethylcellulose (CMC)) 105 % of control; (dose: 174.0 mg/kg/injection, vehicle: carboxymethylcellulose (CMC)) 101 % of control; (dose: 205.33 mg/kg/injection, vehicle: carboxymethylcellulose (CMC)) 77 % of control and 82 % of control. Besides, the T/C (dose: 250.0 mg/kg/injection, vehicle: methylcellulose (MC)) was 118 % of control; the T/C (dose: 320.0 mg/kg/injection, vehicle: carboxymethylcellulose (CMC)) is 123 % of control; the T/C (dose: 348.0 mg/kg/injection, vehicle: carboxymethylcellulose (CMC)) is 76 % of control.
For the molecule `Cc1cccc(CSc2ncnc3nc[nH]c23)n1`, the T/C (dose: 12.5 mg/kg/injection, vehicle: methylcellulose (MC)) was 66 % of control; the T/C (dose: 25.0 mg/kg/injection, vehicle: methylcellulose (MC)) was 51 % of control; the T/C (dose: 50.0 mg/kg/injection, vehicle: methylcellulose (MC)) was 17 % of control; the T/C (dose: 100.0 mg/kg/injection, vehicle: methylcellulose (MC)) is 6 % of control.
On to `Cn1cnc([N+](=O)[O-])c1Sc1nc(N)nc2c1ncn2C1OC(CO)C(O)C1O` (configuration not stated), for which the T/C was 89 % of control (dose: 0.03 mg/kg/injection, vehicle: methylcellulose (MC)); 76 % of control (dose: 0.06 mg/kg/injection, vehicle: methylcellulose (MC)); 14 % of control (dose: 0.11 mg/kg/injection, vehicle: methylcellulose (MC)); 1 % of control and 2 % of control (dose: 0.22 mg/kg/injection, vehicle: methylcellulose (MC)); 2 % of control (dose: 0.44 mg/kg/injection, vehicle: methylcellulose (MC)); 1 % of control (dose: 0.88 mg/kg/injection, vehicle: methylcellulose (MC)). Moreover, the T/C (dose: 1.75 mg/kg/injection, vehicle: methylcellulose (MC)) was 2 % of control.
As to `NC(=S)n1cccn1`, the T/C by setting is: (dose: 20.0 mg/kg/injection, vehicle: methylcellulose (MC)) 91 % of control; (dose: 40.0 mg/kg/injection, vehicle: methylcellulose (MC)) 85 % of control; (dose: 80.0 mg/kg/injection, vehicle: methylcellulose (MC)) 44 % of control; (dose: 160.0 mg/kg/injection, vehicle: methylcellulose (MC)) 8 % of control.
